{
  "source": "patent US10844077B2",
  "about": "“Thiazolyl-containing compounds for treating proliferative diseases” (Dana-Farber Cancer Institute, Inc., priority 2014, dated 2020)",
  "assay_in_all_cases": "KINATIV assay",
  "assay_type_in_all_cases": "cell-based",
  "conditions_in_all_cases": "1 μM, 90 minutes, BCWM.1 cells",
  "key": {"Erk1": {"molecular_target": "Erk1 (Homo sapiens (Human), UniProt P27361)", "sequence (P27361 whole entry)": "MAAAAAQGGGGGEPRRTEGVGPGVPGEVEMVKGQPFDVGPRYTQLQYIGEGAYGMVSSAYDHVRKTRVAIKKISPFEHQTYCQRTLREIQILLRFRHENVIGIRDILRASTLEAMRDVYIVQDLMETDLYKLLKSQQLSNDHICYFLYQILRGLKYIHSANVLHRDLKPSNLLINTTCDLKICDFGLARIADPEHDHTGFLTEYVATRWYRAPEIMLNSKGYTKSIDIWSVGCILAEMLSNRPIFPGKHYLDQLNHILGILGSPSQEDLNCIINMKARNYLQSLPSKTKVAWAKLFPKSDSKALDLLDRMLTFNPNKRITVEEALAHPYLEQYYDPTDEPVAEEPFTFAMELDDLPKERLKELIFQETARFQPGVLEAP", "how_it_was_run": "(§1)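 Harvest, lyse, probe: lysates take up an ATP-biotin probe directly, and ACTIVX identifies and quantifies the kinases bound.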"}, "PAN3": {"molecular_target": "PAN3 (Homo sapiens (Human), UniProt Q58A45)", "how_it_was_run": "as §1"}, "MSK2 domain1": {"molecular_target": "MSK2 domain1 (Homo sapiens (Human), UniProt O75676)", "how_it_was_run": "as §1"}, "PKD1, PKD2": {"test_system": "PKD1, PKD2", "how_it_was_run": "as §1"}, "PKN1": {"molecular_target": "PKN1 (Homo sapiens (Human), UniProt Q16512)", "how_it_was_run": "as §1"}, "MSK1, MSK2 domain1": {"test_system": "MSK1, MSK2 domain1", "how_it_was_run": "as §1"}, "[1]": {"test_system": "ZC1/HGK, ZC2/TNIK, ZC3/MINK", "how_it_was_run": "as §1"}, "MAP3K5": {"molecular_target": "MAP3K5 (Homo sapiens (Human), UniProt Q99683)", "how_it_was_run": "as §1"}, "NEK2": {"molecular_target": "NEK2 (Homo sapiens (Human), UniProt P51955)", "sequence (P51955 whole entry)": "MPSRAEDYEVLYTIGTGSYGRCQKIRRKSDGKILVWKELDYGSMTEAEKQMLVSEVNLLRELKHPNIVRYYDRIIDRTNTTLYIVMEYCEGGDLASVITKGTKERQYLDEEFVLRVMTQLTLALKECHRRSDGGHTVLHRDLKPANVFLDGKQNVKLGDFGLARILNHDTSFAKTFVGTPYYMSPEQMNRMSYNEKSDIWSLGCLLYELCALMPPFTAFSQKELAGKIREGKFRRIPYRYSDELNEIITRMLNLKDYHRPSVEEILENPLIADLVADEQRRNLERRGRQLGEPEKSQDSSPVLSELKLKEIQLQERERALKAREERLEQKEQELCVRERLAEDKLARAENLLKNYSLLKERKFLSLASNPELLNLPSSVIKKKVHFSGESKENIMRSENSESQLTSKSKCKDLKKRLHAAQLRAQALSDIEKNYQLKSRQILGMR", "how_it_was_run": "as §1"}, "SRC": {"molecular_target": "SRC (Homo sapiens (Human), UniProt P12931)", "how_it_was_run": "as §1"}, "ACK": {"molecular_target": "ACK (Homo sapiens (Human), UniProt Q07912)", "sequence (Q07912 whole entry)": "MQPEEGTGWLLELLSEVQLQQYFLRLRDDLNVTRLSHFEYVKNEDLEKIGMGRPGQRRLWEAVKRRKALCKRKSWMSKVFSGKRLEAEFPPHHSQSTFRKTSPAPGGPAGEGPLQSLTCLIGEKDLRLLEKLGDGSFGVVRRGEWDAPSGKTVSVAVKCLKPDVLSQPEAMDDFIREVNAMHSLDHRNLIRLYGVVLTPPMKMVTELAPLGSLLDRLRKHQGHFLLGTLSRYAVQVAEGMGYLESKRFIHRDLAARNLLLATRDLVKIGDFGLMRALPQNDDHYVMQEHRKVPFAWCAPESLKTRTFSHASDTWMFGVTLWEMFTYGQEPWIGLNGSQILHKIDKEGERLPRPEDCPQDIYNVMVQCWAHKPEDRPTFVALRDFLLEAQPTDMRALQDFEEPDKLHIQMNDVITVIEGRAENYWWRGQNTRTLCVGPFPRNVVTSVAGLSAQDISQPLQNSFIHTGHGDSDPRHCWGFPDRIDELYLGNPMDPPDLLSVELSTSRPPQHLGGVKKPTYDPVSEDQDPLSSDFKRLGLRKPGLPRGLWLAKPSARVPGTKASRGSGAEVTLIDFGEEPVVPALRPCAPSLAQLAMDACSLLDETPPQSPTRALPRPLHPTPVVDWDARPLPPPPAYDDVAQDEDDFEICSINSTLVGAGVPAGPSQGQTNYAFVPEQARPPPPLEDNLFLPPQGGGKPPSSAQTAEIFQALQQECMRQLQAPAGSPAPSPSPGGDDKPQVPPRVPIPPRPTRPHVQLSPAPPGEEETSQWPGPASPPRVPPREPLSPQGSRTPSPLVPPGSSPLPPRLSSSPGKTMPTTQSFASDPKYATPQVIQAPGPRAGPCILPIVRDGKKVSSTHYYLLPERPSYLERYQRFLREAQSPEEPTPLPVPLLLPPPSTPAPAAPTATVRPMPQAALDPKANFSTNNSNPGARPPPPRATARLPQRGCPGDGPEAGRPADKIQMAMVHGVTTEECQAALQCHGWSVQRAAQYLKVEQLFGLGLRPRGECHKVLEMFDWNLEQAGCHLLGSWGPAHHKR", "how_it_was_run": "as §1"}, "ILK": {"molecular_target": "ILK (Homo sapiens (Human), UniProt Q13418)", "sequence (Q13418 whole entry)": "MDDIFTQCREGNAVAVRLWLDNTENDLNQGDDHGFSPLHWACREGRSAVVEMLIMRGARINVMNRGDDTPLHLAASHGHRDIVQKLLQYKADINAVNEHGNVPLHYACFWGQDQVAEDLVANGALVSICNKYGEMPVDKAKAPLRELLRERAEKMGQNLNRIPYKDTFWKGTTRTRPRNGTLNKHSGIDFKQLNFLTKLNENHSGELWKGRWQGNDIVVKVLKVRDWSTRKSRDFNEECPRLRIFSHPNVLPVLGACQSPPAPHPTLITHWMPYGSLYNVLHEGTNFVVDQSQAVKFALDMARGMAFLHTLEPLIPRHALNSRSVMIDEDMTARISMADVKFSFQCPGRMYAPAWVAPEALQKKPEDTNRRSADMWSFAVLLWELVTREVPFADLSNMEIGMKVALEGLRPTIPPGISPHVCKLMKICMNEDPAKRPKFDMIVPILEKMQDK", "how_it_was_run": "as §1"}, "MST4": {"molecular_target": "MST4 (Homo sapiens (Human), UniProt Q9P289)", "how_it_was_run": "as §1"}, "RSKL1": {"molecular_target": "RSKL1 (Homo sapiens (Human), UniProt Q96S38)", "how_it_was_run": "as §1"}, "JNK1, JNK2, JNK3": {"test_system": "JNK1, JNK2, JNK3", "how_it_was_run": "as §1"}, "Wnk1, Wnk2, Wnk3": {"test_system": "Wnk1, Wnk2, Wnk3", "how_it_was_run": "as §1"}, "[2]": {"test_system": "CaMK2a, CaMK2b, CaMK2d, CaMK2g", "how_it_was_run": "as §1"}, "IKKe, TBK1": {"test_system": "IKKe, TBK1", "how_it_was_run": "as §1"}, "JAK1": {"molecular_target": "JAK1 (Homo sapiens (Human), UniProt P23458)", "how_it_was_run": "as §1"}, "OSR1": {"molecular_target": "OSR1 (Homo sapiens (Human), UniProt O95747)", "how_it_was_run": "as §1"}, "PIK3C2B": {"molecular_target": "PIK3C2B (Homo sapiens (Human), UniProt O00750)", "how_it_was_run": "as §1"}, "CDK4": {"molecular_target": "CDK4 (Homo sapiens (Human), UniProt P11802)", "how_it_was_run": "as §1"}, "ROCK1": {"molecular_target": "ROCK1 (Homo sapiens (Human), UniProt Q13464)", "how_it_was_run": "as §1"}, "MST1": {"molecular_target": "MST1 (Homo sapiens (Human), UniProt Q13043)", "how_it_was_run": "as §1"}, "CDK11, CDK8": {"test_system": "CDK11, CDK8", "how_it_was_run": "as §1"}, "MASTL": {"molecular_target": "MASTL (Homo sapiens (Human), UniProt Q96GX5)", "sequence (Q96GX5 whole entry)": "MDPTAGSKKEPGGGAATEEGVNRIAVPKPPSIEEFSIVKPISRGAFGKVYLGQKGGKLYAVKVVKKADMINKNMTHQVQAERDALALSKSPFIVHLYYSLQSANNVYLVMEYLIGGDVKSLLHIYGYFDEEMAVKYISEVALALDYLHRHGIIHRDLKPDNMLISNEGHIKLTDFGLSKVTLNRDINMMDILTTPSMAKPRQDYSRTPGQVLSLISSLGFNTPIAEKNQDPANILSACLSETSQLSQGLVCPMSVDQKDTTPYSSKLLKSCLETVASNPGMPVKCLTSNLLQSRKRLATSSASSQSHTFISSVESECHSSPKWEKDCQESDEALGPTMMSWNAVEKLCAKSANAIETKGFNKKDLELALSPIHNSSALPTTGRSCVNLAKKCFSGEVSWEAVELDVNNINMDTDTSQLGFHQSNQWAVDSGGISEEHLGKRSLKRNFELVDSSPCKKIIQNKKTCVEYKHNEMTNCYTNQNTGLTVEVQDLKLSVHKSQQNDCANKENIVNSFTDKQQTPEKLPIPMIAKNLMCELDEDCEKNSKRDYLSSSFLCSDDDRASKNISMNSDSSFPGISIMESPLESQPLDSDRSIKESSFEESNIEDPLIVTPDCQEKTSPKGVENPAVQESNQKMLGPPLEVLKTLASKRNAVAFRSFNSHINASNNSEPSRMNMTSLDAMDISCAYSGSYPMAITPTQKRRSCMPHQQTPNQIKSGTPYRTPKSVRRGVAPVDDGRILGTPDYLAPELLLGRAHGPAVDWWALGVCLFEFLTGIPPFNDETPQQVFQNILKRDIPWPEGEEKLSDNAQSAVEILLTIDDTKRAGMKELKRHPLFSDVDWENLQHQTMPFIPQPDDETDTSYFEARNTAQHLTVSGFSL", "how_it_was_run": "as §1"}, "AKT1": {"molecular_target": "AKT1 (Homo sapiens (Human), UniProt P31749)", "how_it_was_run": "as §1"}, "CaMK4": {"molecular_target": "CaMK4 (Homo sapiens (Human), UniProt Q16566)", "how_it_was_run": "as §1"}, "PI4KA, PI4KAP2": {"test_system": "PI4KA, PI4KAP2", "how_it_was_run": "as §1"}, "MAP3K1": {"molecular_target": "MAP3K1 (Homo sapiens (Human), UniProt Q13233)", "how_it_was_run": "as §1"}, "ITPK1": {"molecular_target": "ITPK1 (Homo sapiens (Human), UniProt Q13572)", "how_it_was_run": "as §1"}, "TAO1, TAO3": {"test_system": "TAO1, TAO3", "how_it_was_run": "as §1"}, "SNRK": {"molecular_target": "SNRK (Homo sapiens (Human), UniProt Q9NRH2)", "sequence (Q9NRH2 whole entry)": "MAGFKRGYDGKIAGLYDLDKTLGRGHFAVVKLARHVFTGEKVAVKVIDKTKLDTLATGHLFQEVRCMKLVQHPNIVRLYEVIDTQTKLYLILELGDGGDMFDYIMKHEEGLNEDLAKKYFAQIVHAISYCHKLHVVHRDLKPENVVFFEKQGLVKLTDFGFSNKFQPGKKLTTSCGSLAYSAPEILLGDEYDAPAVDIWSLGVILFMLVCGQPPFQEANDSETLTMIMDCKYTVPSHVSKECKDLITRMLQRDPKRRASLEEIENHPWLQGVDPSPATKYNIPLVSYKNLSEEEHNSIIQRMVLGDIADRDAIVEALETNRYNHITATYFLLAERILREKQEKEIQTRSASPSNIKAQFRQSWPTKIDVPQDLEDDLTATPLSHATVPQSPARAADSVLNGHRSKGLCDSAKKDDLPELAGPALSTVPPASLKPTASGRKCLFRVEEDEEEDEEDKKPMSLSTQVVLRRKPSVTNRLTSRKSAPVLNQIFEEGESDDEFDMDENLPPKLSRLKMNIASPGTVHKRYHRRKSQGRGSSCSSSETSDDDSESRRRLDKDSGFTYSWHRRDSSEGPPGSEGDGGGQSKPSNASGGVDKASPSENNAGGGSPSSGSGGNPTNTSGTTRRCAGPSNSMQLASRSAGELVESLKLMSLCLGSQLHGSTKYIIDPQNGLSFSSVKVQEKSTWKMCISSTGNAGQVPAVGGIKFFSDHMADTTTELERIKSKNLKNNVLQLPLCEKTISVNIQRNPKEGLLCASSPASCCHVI", "how_it_was_run": "as §1"}, "MLKL": {"molecular_target": "MLKL (Homo sapiens (Human), UniProt Q8NB16)", "how_it_was_run": "as §1"}, "LKB1": {"molecular_target": "LKB1 (Homo sapiens (Human), UniProt Q15831)", "how_it_was_run": "as §1"}, "ULK1": {"molecular_target": "ULK1 (Homo sapiens (Human), UniProt O75385)", "how_it_was_run": "as §1"}, "PIK3CD": {"molecular_target": "PIK3CD (Homo sapiens (Human), UniProt O00329)", "how_it_was_run": "as §1"}, "FES": {"molecular_target": "FES (Homo sapiens (Human), UniProt P07332)", "sequence (P07332 whole entry)": "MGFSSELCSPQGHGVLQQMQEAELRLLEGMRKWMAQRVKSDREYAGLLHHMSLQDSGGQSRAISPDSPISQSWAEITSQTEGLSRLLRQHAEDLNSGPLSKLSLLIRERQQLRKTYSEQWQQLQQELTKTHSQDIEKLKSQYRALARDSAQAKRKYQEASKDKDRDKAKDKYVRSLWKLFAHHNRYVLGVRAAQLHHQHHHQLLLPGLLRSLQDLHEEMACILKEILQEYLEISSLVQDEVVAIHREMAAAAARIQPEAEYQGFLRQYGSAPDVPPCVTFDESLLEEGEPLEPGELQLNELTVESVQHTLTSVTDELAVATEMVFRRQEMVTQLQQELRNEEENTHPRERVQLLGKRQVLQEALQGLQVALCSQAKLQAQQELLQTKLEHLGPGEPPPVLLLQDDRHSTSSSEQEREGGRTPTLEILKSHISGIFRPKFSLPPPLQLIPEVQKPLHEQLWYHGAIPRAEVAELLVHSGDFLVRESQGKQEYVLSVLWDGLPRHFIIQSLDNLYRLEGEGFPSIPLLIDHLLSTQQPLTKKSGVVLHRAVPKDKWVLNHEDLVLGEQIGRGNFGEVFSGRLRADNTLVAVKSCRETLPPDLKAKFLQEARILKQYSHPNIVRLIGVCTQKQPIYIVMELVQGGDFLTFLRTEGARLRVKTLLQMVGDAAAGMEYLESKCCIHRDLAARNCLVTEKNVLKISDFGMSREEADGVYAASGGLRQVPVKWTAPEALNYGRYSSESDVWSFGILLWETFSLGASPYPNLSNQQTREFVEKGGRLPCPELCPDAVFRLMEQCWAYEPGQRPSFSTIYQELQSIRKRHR", "how_it_was_run": "as §1"}, "MAP3K15, MAP3K5, MAP3K6": {"test_system": "MAP3K15, MAP3K5, MAP3K6", "how_it_was_run": "as §1"}, "p38d, p38g": {"test_system": "p38d, p38g", "how_it_was_run": "as §1"}, "TAO2": {"molecular_target": "TAO2 (Homo sapiens (Human), UniProt Q9UL54)", "how_it_was_run": "as §1"}, "Wnk1, Wnk2": {"test_system": "Wnk1, Wnk2", "how_it_was_run": "as §1"}},
  "note": "Where “and” joins values, the source holds several entries; their conditions need not be identical. Equal entries are not always repeated.",
  "data": [
    {"smiles": "C=CC(=O)N1CCC(CNc2nccc(Nc3ncc(C(=O)Nc4c(C)cccc4C)s3)n2)C1", "note": "(racemic) [Example I-8]", "values": [
      {"measurement": "% change of MS signal compared to control sample", "setting": "Erk1", "value": "−19.7", "unit": "%"},
      {"measurement": "% change of MS signal compared to control sample", "setting": "PAN3", "value": 18.3, "unit": "%"},
      {"measurement": "% change of MS signal compared to control sample", "setting": "MSK2 domain1", "value": "−47.7", "unit": "%"},
      {"measurement": "% change of MS signal compared to control sample", "setting": "PKD1, PKD2", "value": "−15.3", "unit": "%"},
      {"measurement": "% change of MS signal compared to control sample", "setting": "PKN1", "value": 13.7, "unit": "%"},
      {"measurement": "% change of MS signal compared to control sample", "setting": "MSK1, MSK2 domain1", "value": "−29.7", "unit": "%"},
      {"measurement": "% change of MS signal compared to control sample", "setting": "[1]", "value": 13.6, "unit": "%"},
      {"measurement": "% change of MS signal compared to control sample", "setting": "MAP3K5", "value": "−0.7", "unit": "%"},
      {"measurement": "% change of MS signal compared to control sample", "setting": "NEK2", "value": "−3.0", "unit": "%"},
      {"measurement": "% change of MS signal compared to control sample", "setting": "SRC", "value": ">90", "unit": "%"},
      {"measurement": "% change of MS signal compared to control sample", "setting": "ACK", "value": "69.9% and 82.4%"},
      {"measurement": "% change of MS signal compared to control sample", "setting": "ILK", "value": "19.4% and 36.6%"},
      {"measurement": "% change of MS signal compared to control sample", "setting": "MST4", "value": "−0.8", "unit": "%"},
      {"measurement": "% change of MS signal compared to control sample", "setting": "RSKL1", "value": 35.0, "unit": "%"},
      {"measurement": "% change of MS signal compared to control sample", "setting": "JNK1, JNK2, JNK3", "value": "−9.5", "unit": "%"},
      {"measurement": "% change of MS signal compared to control sample", "setting": "Wnk1, Wnk2, Wnk3", "value": 1.7, "unit": "%"},
      {"measurement": "% change of MS signal compared to control sample", "setting": "[2]", "value": 10.4, "unit": "%"},
      {"measurement": "% change of MS signal compared to control sample", "setting": "IKKe, TBK1", "value": 5.5, "unit": "%"},
      {"measurement": "% change of MS signal compared to control sample", "setting": "JAK1", "value": "−1.9", "unit": "%"},
      {"measurement": "% change of MS signal compared to control sample", "setting": "OSR1", "value": 27.9, "unit": "%"},
      {"measurement": "% change of MS signal compared to control sample", "setting": "PIK3C2B", "value": 12.5, "unit": "%"},
      {"measurement": "% change of MS signal compared to control sample", "setting": "CDK4", "value": 6.1, "unit": "%"},
      {"measurement": "% change of MS signal compared to control sample", "setting": "ROCK1", "value": 4.4, "unit": "%"},
      {"measurement": "% change of MS signal compared to control sample", "setting": "MST1", "value": 2.4, "unit": "%"},
      {"measurement": "% change of MS signal compared to control sample", "setting": "CDK11, CDK8", "value": 19.6, "unit": "%"},
      {"measurement": "% change of MS signal compared to control sample", "setting": "MASTL", "value": "−16.9% and −9.5%"},
      {"measurement": "% change of MS signal compared to control sample", "setting": "AKT1", "value": "−19.5", "unit": "%"},
      {"measurement": "% change of MS signal compared to control sample", "setting": "CaMK4", "value": "−26.3", "unit": "%"},
      {"measurement": "% change of MS signal compared to control sample", "setting": "PI4KA, PI4KAP2", "value": "−9.9", "unit": "%"},
      {"measurement": "% change of MS signal compared to control sample", "setting": "MAP3K1", "value": 15.5, "unit": "%"},
      {"measurement": "% change of MS signal compared to control sample", "setting": "ITPK1", "value": "−16.4", "unit": "%"},
      {"measurement": "% change of MS signal compared to control sample", "setting": "TAO1, TAO3", "value": "−8.7", "unit": "%"},
      {"measurement": "% change of MS signal compared to control sample", "setting": "SNRK", "value": "45.1% and 59.1%"},
      {"measurement": "% change of MS signal compared to control sample", "setting": "MLKL", "value": "−17.5", "unit": "%"},
      {"measurement": "% change of MS signal compared to control sample", "setting": "LKB1", "value": "−1.8", "unit": "%"},
      {"measurement": "% change of MS signal compared to control sample", "setting": "ULK1", "value": 16.1, "unit": "%"},
      {"measurement": "% change of MS signal compared to control sample", "setting": "PIK3CD", "value": "−16.2", "unit": "%"},
      {"measurement": "% change of MS signal compared to control sample", "setting": "FES", "value": "−13.3", "unit": "%"},
      {"measurement": "% change of MS signal compared to control sample", "setting": "MAP3K15, MAP3K5, MAP3K6", "value": 2.2, "unit": "%"},
      {"measurement": "% change of MS signal compared to control sample", "setting": "p38d, p38g", "value": 3.3, "unit": "%"},
      {"measurement": "% change of MS signal compared to control sample", "setting": "TAO2", "value": "−4.9", "unit": "%"},
      {"measurement": "% change of MS signal compared to control sample", "setting": "Wnk1, Wnk2", "value": "−16.4", "unit": "%"}
    ]}
  ]
}
